IC50 and inhibition data for one compound are collected here from ChEMBL document CHEMBL4406923, “New Potent DOT1L Inhibitors for in Vivo Evaluation in Mouse” (ACS Med Chem Lett, 2019).

SMILES strings stand for the structures. The source made the active and inactive calls. The rule behind the calls is not given here.

Assay [1] has as its target Histone-lysine N-methyltransferase, H3 lysine-79 specific (Homo sapiens, UniProt Q8TEK3). Nature of the assay: Inhibition of 0.05 nM DOT1L (2 to 416 residues) (unknown origin) using biotinylated nucleosome as substrate and [3H]SAM as co-factor preincubated for 30 mins followed by substrate and cofactor addition and measured after 180 mins by scintillation proximity assay. For orientation: SPA uses beads or plates that emit light when radiolabelled molecules are held near them.

Assay [2] deals with N-lysine methyltransferase SMYD2 (Homo sapiens) (UniProt Q9NRG4). Nature of the assay: Inhibition of SmyD2 (unknown origin) at <5 uM using p53 (363 to 393 residues) as substrate in presence of co-factor SAM by LC-MS analysis.
For assay [3], the target named is T1, Histone-lysine N-methyltransferase SETD7 (Homo sapiens) (UniProt Q8WTS6).
T1 sequence (whole entry): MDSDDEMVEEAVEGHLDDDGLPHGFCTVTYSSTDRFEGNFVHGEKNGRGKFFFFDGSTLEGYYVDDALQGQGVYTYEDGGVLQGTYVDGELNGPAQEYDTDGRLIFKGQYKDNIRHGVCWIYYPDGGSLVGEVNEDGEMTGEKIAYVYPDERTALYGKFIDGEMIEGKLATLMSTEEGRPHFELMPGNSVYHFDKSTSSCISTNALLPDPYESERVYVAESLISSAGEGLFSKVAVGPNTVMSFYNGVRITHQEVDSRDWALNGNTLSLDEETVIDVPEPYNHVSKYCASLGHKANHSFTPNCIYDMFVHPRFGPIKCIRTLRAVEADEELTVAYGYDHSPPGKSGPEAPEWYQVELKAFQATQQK
Nature of the assay: Inhibition of Set7/9 (unknown origin) at <5 uM using H3 (1 to 21) as substrate in presence of co-factor SAM by LC-MS analysis.

The target in assay [4] is T2, N-lysine methyltransferase KMT5A (Homo sapiens) (UniProt Q9NQR1).
T2 sequence (whole entry): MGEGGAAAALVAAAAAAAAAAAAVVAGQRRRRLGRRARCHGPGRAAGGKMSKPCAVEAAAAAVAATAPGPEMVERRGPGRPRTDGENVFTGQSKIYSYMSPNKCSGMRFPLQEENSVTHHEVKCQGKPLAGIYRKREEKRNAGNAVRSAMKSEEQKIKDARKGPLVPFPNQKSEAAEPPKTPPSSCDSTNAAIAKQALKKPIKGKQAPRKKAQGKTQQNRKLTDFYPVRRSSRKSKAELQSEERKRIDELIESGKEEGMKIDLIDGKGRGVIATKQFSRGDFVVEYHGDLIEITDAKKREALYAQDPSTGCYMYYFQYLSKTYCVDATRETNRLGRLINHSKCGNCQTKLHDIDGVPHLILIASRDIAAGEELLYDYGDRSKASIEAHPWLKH
Nature of the assay: Inhibition of SETD8 (unknown origin) at <5 uM using H4 (11 to 33 residues) as substrate in presence of co-factor SAM by LC-MS analysis.

Assay [5] deals with T3, Histone-lysine N-methyltransferase NSD3 (Homo sapiens) (UniProt Q9BZ95).
T3 sequence (whole entry): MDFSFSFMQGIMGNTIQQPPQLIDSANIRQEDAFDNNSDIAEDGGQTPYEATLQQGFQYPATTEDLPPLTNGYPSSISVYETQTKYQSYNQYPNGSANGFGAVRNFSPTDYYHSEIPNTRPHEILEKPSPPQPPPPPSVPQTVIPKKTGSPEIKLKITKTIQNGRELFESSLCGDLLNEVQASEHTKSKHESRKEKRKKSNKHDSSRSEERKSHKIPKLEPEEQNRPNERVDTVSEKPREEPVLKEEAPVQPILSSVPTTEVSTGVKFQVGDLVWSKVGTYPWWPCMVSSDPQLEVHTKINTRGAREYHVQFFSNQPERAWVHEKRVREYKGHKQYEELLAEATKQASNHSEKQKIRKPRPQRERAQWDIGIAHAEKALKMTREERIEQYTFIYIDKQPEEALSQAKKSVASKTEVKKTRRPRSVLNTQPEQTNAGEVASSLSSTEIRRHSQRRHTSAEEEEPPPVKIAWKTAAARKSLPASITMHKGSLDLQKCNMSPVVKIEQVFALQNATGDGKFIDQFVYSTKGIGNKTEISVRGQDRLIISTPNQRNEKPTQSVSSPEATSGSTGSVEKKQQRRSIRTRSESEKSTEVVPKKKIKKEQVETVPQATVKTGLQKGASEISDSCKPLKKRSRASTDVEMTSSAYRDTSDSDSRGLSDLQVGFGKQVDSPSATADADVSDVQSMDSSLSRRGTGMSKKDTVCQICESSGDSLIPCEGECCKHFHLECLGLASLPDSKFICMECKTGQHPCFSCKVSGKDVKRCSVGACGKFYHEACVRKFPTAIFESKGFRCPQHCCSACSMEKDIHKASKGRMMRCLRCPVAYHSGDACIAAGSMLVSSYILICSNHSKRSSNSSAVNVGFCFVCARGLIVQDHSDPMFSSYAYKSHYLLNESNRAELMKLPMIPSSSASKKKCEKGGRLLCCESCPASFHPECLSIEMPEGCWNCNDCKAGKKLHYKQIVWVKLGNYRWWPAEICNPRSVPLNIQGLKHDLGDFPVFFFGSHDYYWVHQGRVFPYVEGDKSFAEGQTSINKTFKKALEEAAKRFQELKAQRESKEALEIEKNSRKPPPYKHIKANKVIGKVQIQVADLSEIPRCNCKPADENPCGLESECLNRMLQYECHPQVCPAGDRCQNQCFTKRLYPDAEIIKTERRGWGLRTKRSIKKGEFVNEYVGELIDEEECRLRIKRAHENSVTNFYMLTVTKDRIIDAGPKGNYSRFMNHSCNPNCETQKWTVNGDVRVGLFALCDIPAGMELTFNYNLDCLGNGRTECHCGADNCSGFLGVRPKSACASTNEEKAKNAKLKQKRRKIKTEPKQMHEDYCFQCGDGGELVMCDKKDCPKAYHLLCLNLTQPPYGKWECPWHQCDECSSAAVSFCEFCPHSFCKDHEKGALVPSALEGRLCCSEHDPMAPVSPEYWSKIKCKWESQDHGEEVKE
Nature of the assay: Inhibition of NSD3 (unknown origin) at <5 uM using histone H3 peptide (1 to 45) as substrate in presence of co-factor SAM by LC-MS analysis.

N-lysine methyltransferase SMYD2 (Homo sapiens), sequence (Q9NRG4 whole entry, the tested form may be a part): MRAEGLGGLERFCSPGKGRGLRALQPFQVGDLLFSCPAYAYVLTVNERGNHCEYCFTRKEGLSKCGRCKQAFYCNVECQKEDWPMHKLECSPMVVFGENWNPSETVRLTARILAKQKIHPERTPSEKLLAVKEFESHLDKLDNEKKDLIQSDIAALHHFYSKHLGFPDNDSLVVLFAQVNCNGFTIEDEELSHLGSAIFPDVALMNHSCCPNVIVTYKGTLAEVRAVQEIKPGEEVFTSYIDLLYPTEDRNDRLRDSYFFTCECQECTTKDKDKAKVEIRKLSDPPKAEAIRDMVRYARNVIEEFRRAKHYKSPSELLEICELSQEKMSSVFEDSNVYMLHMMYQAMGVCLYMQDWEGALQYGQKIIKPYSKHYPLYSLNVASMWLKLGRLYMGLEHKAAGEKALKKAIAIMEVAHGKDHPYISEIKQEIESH
Histone-lysine N-methyltransferase, H3 lysine-79 specific, sequence (Q8TEK3 whole entry, the tested form may be a part): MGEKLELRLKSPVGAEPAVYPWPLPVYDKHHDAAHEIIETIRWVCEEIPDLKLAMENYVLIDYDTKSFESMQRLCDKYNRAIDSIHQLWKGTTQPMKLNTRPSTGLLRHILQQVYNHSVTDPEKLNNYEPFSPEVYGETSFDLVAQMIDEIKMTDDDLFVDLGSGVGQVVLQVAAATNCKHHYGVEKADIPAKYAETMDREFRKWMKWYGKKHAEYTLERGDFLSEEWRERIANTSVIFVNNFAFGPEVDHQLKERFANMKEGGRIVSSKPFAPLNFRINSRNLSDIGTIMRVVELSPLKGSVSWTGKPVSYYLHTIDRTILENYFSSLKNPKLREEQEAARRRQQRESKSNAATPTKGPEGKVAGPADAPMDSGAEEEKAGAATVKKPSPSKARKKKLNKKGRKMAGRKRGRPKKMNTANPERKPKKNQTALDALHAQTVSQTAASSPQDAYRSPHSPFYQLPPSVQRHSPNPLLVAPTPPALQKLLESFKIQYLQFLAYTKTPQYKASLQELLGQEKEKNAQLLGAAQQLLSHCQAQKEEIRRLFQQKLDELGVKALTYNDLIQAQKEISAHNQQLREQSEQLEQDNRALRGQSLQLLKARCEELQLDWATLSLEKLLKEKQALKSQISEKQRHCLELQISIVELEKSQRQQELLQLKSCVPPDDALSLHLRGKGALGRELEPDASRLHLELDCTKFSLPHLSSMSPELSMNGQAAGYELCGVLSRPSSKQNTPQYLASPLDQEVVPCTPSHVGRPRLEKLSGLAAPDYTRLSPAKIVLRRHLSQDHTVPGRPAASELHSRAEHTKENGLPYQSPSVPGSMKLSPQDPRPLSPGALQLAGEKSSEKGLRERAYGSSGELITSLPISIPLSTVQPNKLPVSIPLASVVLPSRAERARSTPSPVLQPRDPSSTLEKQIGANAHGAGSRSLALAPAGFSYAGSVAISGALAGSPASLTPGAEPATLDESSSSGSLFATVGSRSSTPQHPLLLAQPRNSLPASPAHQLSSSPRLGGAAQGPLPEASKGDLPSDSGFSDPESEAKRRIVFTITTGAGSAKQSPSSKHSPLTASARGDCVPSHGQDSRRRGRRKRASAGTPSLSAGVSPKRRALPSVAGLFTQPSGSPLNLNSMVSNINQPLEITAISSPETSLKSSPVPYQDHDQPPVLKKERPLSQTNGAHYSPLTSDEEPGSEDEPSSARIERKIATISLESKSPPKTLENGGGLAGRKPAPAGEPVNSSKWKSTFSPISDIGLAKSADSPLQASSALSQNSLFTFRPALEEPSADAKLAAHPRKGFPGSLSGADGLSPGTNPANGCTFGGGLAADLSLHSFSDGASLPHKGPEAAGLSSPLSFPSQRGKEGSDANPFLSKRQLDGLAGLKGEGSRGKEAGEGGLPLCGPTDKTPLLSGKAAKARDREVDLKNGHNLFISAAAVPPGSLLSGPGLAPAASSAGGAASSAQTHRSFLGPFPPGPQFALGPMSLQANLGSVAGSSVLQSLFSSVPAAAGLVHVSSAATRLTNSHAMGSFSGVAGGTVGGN

The term IC50 denotes the concentration needed to halve the response being measured. In assay [1], `COc1nc(Nc2cc(S(C)(=O)=O)ccc2N[C@@H](c2cccc3c2OC(F)(F)O3)c2ncccc2Cl)nc(N2CCNCC2)n1` gave a half-inhibitory concentration (IC50) of 0.11 nM. The inhibition result in assay [2], in assay [3], in assay [4] and in assay [5] was “inactive” each time.
